Experimental data reported in publication PMC5841205, “Pharmacological targeting of apelin impairs glioblastoma growth” (Brain, 2017).

Key:
[1] = tested on: GSCs (glioblastoma patient-derived cells with stem-like properties); experiment: Tumoursphere formation, apelin peptides; format: cell-based, human; settings: for number of tumourspheres: 1 μM apelin peptide in mitogen-free medium (MF), GSCs #1, #9, #12 and #13, vs MF, 5 days
Source text: Glioblastoma patient-derived cells with stem-like properties (GSCs) were isolated as previously described ([Treps et al., 2016]). Briefly, tumours were dissociated using the MACsDissociator (Miltenyi) and each GSC characterized for their self-renewal capabilities, cell surface antigens, expression of stemness markers, their ability to differentiate, and to initiate tumour formation (Supplementary Table 1). GSCs 1–16 were maintained as spheres in NS medium (DMEM-F12, with N2, G5 and B27 supplements, GlutaMAX™ and antibiotics, Life Technologies). To induce differentiation in GSCs, the three supplements were omitted and 10% foetal bovine serum added to the media.
(§1) To test the tumoursphere formation, GSCs (100 cells/µl) were plated in triplicate in indicated media as previously described ([Harford-Wright et al., 2016]). Cells were manually dissociated each day and a single cell suspension maintained until Day 5. Tumourspheres were counted in five random fields of view, and the mean from the triplicate of each condition calculated from three independent experiments.
(§2) (C) Confocal analysis of NESTIN (green), SOX2 (red) and nuclei (DAPI, blue) in GSC#1 grown in NS, MF, human brain endothelial cell-conditioned medium (EC-CM) or MF+APLN (1 μM). Scale bars = 20 µm. (D) Linear regression plot of in vitro limiting dilution assay (LDA) for GSC#1 in NS, EC-CM, MF, and MF+APLN (1 μM). Data are representative of n = 2. […] (F) Stem cell frequency in GSCs #1, #2, #4, #9 and #12 in response to MF and APLN conditions. […] (H) EC received non-silencing RNA (sic) or siRNA targeting APLN (siAPLN) and APLN knockdown efficiency assessed by RT-PCR and ELISA. […] (K) FACS analysis of the proliferation marker Ki67 in GSCs #4 and #9 in NS and MF+APLN conditions. All panels are representative of n = 3, unless otherwise specified.

GSC#1 [2] = settings: GSC#1, synthetic apelin 1 μM added to MF
Description: as §2

GSCs #4 and #9 = settings: GSCs #4 and #9, apelin-supplemented MF
Description: as §2

[3] = tested on: GSCs (glioblastoma patient-derived cells with stem-like properties)
Description: as §2

endothelial cells = settings: ref Kleinz and Davenport, 2005; cited from earlier work
Source text: Moreover, apelin has been implicated in physiological and pathological angiogenesis ([Kaelin et al., 2007]). […] In keeping with this, a recent study proposed apelin as a marker for monitoring tumour vessel normalization and response to anti-angiogenic therapy ([Zhang et al., 2016]; [Zuurbier et al., 2017]).

GSC#1 [4] = experiment: Tumoursphere formation, tideglusib; format: cell-based, human; settings: GSC#1, tideglusib 2.5 μM with apelin 1 μM
Description: as §1
(§3) Figure 4 Pharmacological inhibition of APLNR impairs the effects of the endothelial secretome on GSCs by inhibition of GSK3β signalling. (A) Molecular structure and primary sequence of the competitive APLNR antagonist MM54. […] (C) The percentage of calcium flux inhibition following MM54 treatment (0.4–10 μM) in the G-protein coupled receptor hits. […] (J) Reverse protein phase array (RPPA) from the TCGA database were analysed in low and high APLNR expressing glioblastoma samples. *P < 0.05; **P < 0.01 compared to the low APLNR condition. […] (N) GSC #1 received sic (control) or GSK3B targeting siRNA (siGSK3B) and tumoursphere per field of view was quantified in MF supplemented with purified apelin (APLN, 1 μM). *P < 0.05 compared to the sic MF condition.

GSC #1 = experiment: Limiting dilution assay, tideglusib; format: cell-based, human; settings: GSC#1, tideglusib 2.5 μM with apelin 1 μM
Description: as §3, with “hits. (D) Tumoursphere per field of view (fov) in response to MM54 (0–4 μM) treatment in GSC#1 maintained in human brain endothelial cell-conditioned medium (EC-CM) and apelin-supplemented mitogen-free MF media (APLN, 1 μM) for 5 days. *P < 0.05 compared to EC-CM DMSO control, ^#P < 0.05 compared to apelin DMSO control. […] (F) Stem cell frequency in apelin supplemented media in response to MM54 (2 μM) in GSCs #1, #4, #9 and #12. *P < 0.05 compared to the vehicle condition. (G) Flow cytometry analysis of the percentage of ALDH positive and negative GSC #1 in response to 2, 10 or 20 μM of MM54 at Day 5.” for “hits.”

[5] = tested on: GSCs (glioblastoma patient-derived cells with stem-like properties); experiment: Tumoursphere formation, APLNR antagonists and TMZ; format: cell-based, human; settings: GSC#1, TMZ 10–100 μM, Day 5
Description: as §1
Figure 4 Pharmacological inhibition of APLNR impairs the effects of the endothelial secretome on GSCs by inhibition of GSK3β signalling. (A) Molecular structure and primary sequence of the competitive APLNR antagonist MM54. […] (J) Reverse protein phase array (RPPA) from the TCGA database were analysed in low and high APLNR expressing glioblastoma samples. *P < 0.05; **P < 0.01 compared to the low APLNR condition. […] (N) GSC #1 received sic (control) or GSK3B targeting siRNA (siGSK3B) and tumoursphere per field of view was quantified in MF supplemented with purified apelin (APLN, 1 μM). *P < 0.05 compared to the sic MF condition.
Figure 5 Pharmacological inhibition of APLNR by MM54 impairs the in vitro expansion of temozolomide-resistant GSCs. (A) Cell viability following treatment with DMSO, MM54 (2, 20 and 100 μM) or temozolomide (TMZ, 50 μM) was measured using UptiBlue in different cell types for 3 days. […]

GSC#1 ALDH activity = experiment: ALDH activity (ALDEFLUOR flow cytometry); format: cell-based, human
Description: Analysis of aldehyde dehydrogenase (ALDH) activity was performed using the ALDEFLUOR™ assay kit (Stem Cell Technologies). Briefly, cells were incubated with ALDEFLUOR alone or in combination with an ALDH activity inhibitor (DAEB) at 37°C for 45 min. This flow cytometry-based staining allows monitoring ALDH activity in stem, progenitor and cancer precursor cells. The ALDH activity is considered positive in comparison to cells incubated with DEAB reagent.
as §3, with “hits. (D) Tumoursphere per field of view (fov) in response to MM54 (0–4 μM) treatment in GSC#1 maintained in human brain endothelial cell-conditioned medium (EC-CM) and apelin-supplemented mitogen-free MF media (APLN, 1 μM) for 5 days. *P < 0.05 compared to EC-CM DMSO control, ^#P < 0.05 compared to apelin DMSO control. […] (F) Stem cell frequency in apelin supplemented media in response to MM54 (2 μM) in GSCs #1, #4, #9 and #12. *P < 0.05 compared to the vehicle condition. (G) Flow cytometry analysis of the percentage of ALDH positive and negative GSC #1 in response to 2, 10 or 20 μM of MM54 at Day 5. ALDH activity corresponds to the percentage of cells that contains ALDH activity (positive) or not (negative), normalized to the vehicle condition. *P < 0.05; ***P < 0.001 compared to the vehicle condition.” for “hits.”
(§4) Figure 5 Pharmacological inhibition of APLNR by MM54 impairs the in vitro expansion of temozolomide-resistant GSCs. (A) Cell viability following treatment with DMSO, MM54 (2, 20 and 100 μM) or temozolomide (TMZ, 50 μM) was measured using UptiBlue in different cell types for 3 days. […] (B and C) Cell viability following treatment with DMSO or TMZ (100 μM) was measured using UptiBlue in GSCs #1, #4, #9, and #12 for 3 days. […] (D) GSC#1 viability was assessed following combined treatment with MM54 (0.2–20 μM) and TMZ (constant ratios TMZ:MM54 2.5:1, 5:1, and 10:1) in NS and human brain endothelial cell-conditioned medium (EC-CM) conditions. (E and F) Tumoursphere per field of view (fov) and ALDH activity were assessed in response to MM54 (0.2–100 μM) or TMZ (10–100 μM) treatment at Day 5. […]

[6] = tested on: U87 glioblastoma cell line; experiment: Cell viability (UptiBlue), U87; format: cell-based, human
Description: (§5) Cell viability in response to MM54 was tested using the UptiBlue reagent (Interchim), a fluorometric/colorimetric growth indicator based on the detection of metabolic activity. Briefly, cells were seeded at a density of 2 × 10^3 per well, UptiBlue added at a concentration of 10% v/v and cells maintained at 37°C 5% CO2 until analysis. Absorbance was measured at Day 5 following treatment at 570 and 600 nm on a FLUOStar OPTIMA (BMG Labtech) plate reader, and the percentage of cell viability calculated according to the manufacturer’s instructions.
as §4

[7] = tested on: LN229 glioblastoma cell line; experiment: Cell viability (UptiBlue), LN229; format: cell-based, human; settings: TMZ
Description: as §5, §4

GSCs #1, #4, #9, and #12 = experiment: Cell viability (UptiBlue), GSCs; format: cell-based, human; settings: TMZ 100 μM, GSCs #1, #4 and #9, serum-containing medium, 3 days
Description: as §5, §4

apelin-13
number of tumourspheres ([1]; n = 3): increased the number of tumourspheres compared to mitogen-free media
potency at sustaining GSCs (tumourspheres) ([1]; 1 μM, compared among apelin-13, pyr-apelin-13 and apelin-36): most potent at sustaining GSCs
tumourspheres, increasing concentrations ([1]; GSC#1, increasing apelin-13 concentrations in MF, n = 3): potent and sustained increase in tumourspheres from the lowest concentration
stem properties of GSCs in APLN-depleted EC-CM ([1]; GSC#1 in siAPLN EC-CM plus apelin 1 μM, tumoursphere and LDA): restored this effect
ability of GSCs to expand as tumourspheres ([1]; panel of 16 patient-derived GSCs, apelin-supplemented MF vs MF, n = 3): significantly increased the ability of GSCs to expand as tumourspheres
rescue of NESTIN and SOX2 expression and ability to form tumourspheres (GSC#1 [2]): rescued by the addition of synthetic apelin
proliferation (Ki67) of GSCs (GSCs #4 and #9): did not observe any obvious effect
frequency of colony-forming cells ([3]; GSC#1, apelin 1 μM in MF vs MF, two weeks, n = 2): increase in the frequency of colony-forming cells
frequency of stem cells ([3]; GSCs #1, #2, #4, #9 and #12, apelin vs MF): increased the frequency of stem cells
endothelial cell proliferation and vessel sprouting (endothelial cells): induces proliferation and vessel sprouting in endothelial cells

O=c1sn(-c2cccc3ccccc23)c(=O)n1Cc1ccccc1 [tideglusib]
effect on apelin-mediated increase in tumourspheres (GSC#1 [4]): apelin was less potent at increasing tumourspheres and self-renewal
effect on apelin-mediated increase in self-renewal (LDA) (GSC #1): apelin was less potent at increasing tumourspheres and self-renewal

Cn1nnc2c(C(N)=O)ncn2c1=O [TMZ, Temozolomide]
concentrations needed for tumoursphere impairment comparable to MM54 [5]: required much higher concentrations to achieve comparable results
concentrations needed for ALDH impairment comparable to MM54 (GSC#1 ALDH activity; GSC#1, TMZ 10–100 μM, Day 5): required much higher concentrations to achieve comparable results
activity of the stem marker ALDH, TMZ alone (GSC#1 ALDH activity; TMZ alone): does not alter the activity of the stem marker ALDH
potentiation of MM54 effect on ALDH activity (GSC#1 ALDH activity; TMZ with MM54 suboptimal dose <2 μM, MM54:TMZ 1:2.5, 1:5, 1:10): significantly potentiates the effects of MM54
percentage of ALDH-positive cells, TMZ combined with suboptimal dose of MM54 (GSC#1 ALDH activity; TMZ with suboptimal dose of MM54): profound alterations in the percentage of ALDH-positive cells
viability, U87 ([6]; TMZ): significantly reduced the viability
viability, U87 grown as adherent differentiated cells ([6]; TMZ 100 μM, serum-containing medium, 3 days): reduces the viability
viability, LN229 [7]: significantly reduced the viability
viability, GSCs grown as adherent differentiated cells (GSCs #1, #4, #9, and #12): reduces the viability

pyr-apelin-13
number of tumourspheres ([1]; n = 3): increased the number of tumourspheres compared to mitogen-free media
